In the supplement of paper PMC10307832:

Compound: CC(C)C[C@@H](C(=O)N[C@H](C(=O)OC1CCCC1)c1ccccc1)[C@H](O)C(=O)NO [Tosedostat] + CC1(C)CCC(c2ccc(Cl)cc2)=C(CN2CCN(c3ccc(C(=O)NS(=O)(=O)c4ccc(N[C@H](CCN5CCOCC5)CSc5ccccc5)c(S(=O)(=O)C(F)(F)F)c4)cc3)CC2)C1 [Navitoclax] (partner 0.5 µM)
Experiment: relative viability (nuclei count vs DMSO), 5 days (fraction); higher = more cells survive
Details: first compound 0.02 µM
Procedure, shortened: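 For relative viability, nuclei counts in treated wells were divided by those in vehicle wells. Lung cancer cell lines had been pin-tool dosed in 1536-well plates the day after seeding and cultured for 5 days, then fixed and stained in one step (final 0.05% Triton X-100, 1% formaldehyde, 1 ug/ml Hoechst) and imaged at 4×. Doses were one drug alone or a fixed anchor-drug dose plus five library-drug doses (not always all listed) in √10 steps, and values are duplicate-plate medians.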

| Cell Line | relative viability |
| --- | --- |
| NCI-H460 | 1.38 |
| HOP-62 | 1.19 |
| LXF-289 | 0.965 |
| BEN | 0.35 |
| HARA | 1.17 |
| HCC-78 | 0.717 |
| NCI-H647 | 1.25 |
| LCLC-97TM1 | 0.559 |
| NCI-H2126 | 0.801 |
| A-427 | 0.921 |
| RERF-LC-KJ | 1.03 |
| NCI-H1915 | 0.801 |
| NCI-H441 | 1.01 |
| NCI-H1975 | 1.06 |
| NCI-H1395 | 1.06 |
| 201T | 1.19 |
| NCI-H2023 | 1.07 |
| HCC-827 | 1.01 |
| NCI-H322M | 1.17 |

| Cell Line | relative viability |
| --- | --- |
| NCI-H1437 | 1.13 |
| PC-14 | 1.03 |
| CAL-12T | 1.27 |
| NCI-H1734 | 0.833 |
| EPLC-272H | 1.19 |
| NCI-H3122 | 1.05 |
| NCI-H2009 | 1.2 |
| NCI-H520 | 1.19 |
| NCI-H1651 | 1.03 |
| NCI-H1993 | 0.895 |
| NCI-H2228 | 1 |
| HCC-15 | 0.772 |
| NCI-H1793 | 0.402 |
| EKVX | 0.962 |
| LC-2-ad | 0.614 |
| NCI-H1666 | 0.864 |
| NCI-H1944 | 1.1 |
| NCI-H2085 | 1.04 |

Same assay, conditions: first compound 0.06325 µM

| Cell Line | relative viability |
| --- | --- |
| NCI-H460 | 1.18 |
| HOP-62 | 1 |
| LXF-289 | 0.879 |
| BEN | 0.0546 |
| HARA | 1.2 |
| HCC-78 | 0.808 |
| NCI-H647 | 1.22 |
| NCI-H2126 | 0.876 |
| A-427 | 0.925 |
| RERF-LC-KJ | 0.953 |
| NCI-H1915 | 0.775 |
| NCI-H441 | 0.477 |
| NCI-H1975 | 1.14 |
| NCI-H1395 | 1.19 |
| 201T | 1.24 |
| NCI-H2023 | 0.989 |
| HCC-827 | 1.03 |
| NCI-H322M | 1.11 |

| Cell Line | relative viability |
| --- | --- |
| NCI-H1437 | 1.09 |
| PC-14 | 0.999 |
| CAL-12T | 1.13 |
| NCI-H1734 | 0.801 |
| EPLC-272H | 1.3 |
| NCI-H3122 | 1.05 |
| NCI-H2009 | 1.12 |
| NCI-H520 | 1.3 |
| NCI-H1651 | 0.885 |
| NCI-H1993 | 0.877 |
| NCI-H2228 | 0.856 |
| HCC-15 | 0.729 |
| NCI-H1793 | 0.463 |
| EKVX | 0.969 |
| LC-2-ad | 0.419 |
| NCI-H1666 | 0.946 |
| NCI-H1944 | 0.975 |
| NCI-H2085 | 1.06 |

Same assay, conditions: first compound 0.2 µM

| Cell Line | relative viability |
| --- | --- |
| NCI-H460 | 1.09 |
| HOP-62 | 1.01 |
| LXF-289 | 0.938 |
| BEN | 0.0614 |
| HARA | 1.1 |
| HCC-78 | 0.736 |
| NCI-H647 | 0.936 |
| NCI-H2126 | 0.894 |
| A-427 | 0.999 |
| RERF-LC-KJ | 0.948 |
| NCI-H1915 | 0.783 |
| NCI-H441 | 0.421 |
| NCI-H1975 | 1 |
| NCI-H1395 | 0.905 |
| 201T | 1.29 |
| NCI-H2023 | 1.05 |
| HCC-827 | 1.06 |
| NCI-H322M | 1.19 |

| Cell Line | relative viability |
| --- | --- |
| NCI-H1437 | 1.15 |
| PC-14 | 1.04 |
| CAL-12T | 1.19 |
| NCI-H1734 | 0.789 |
| EPLC-272H | 0.826 |
| NCI-H3122 | 0.996 |
| NCI-H2009 | 1.17 |
| NCI-H520 | 1.14 |
| NCI-H1651 | 1.28 |
| NCI-H1993 | 0.817 |
| NCI-H2228 | 0.781 |
| HCC-15 | 0.684 |
| NCI-H1793 | 0.402 |
| EKVX | 0.898 |
| LC-2-ad | 0.473 |
| NCI-H1666 | 0.98 |
| NCI-H1944 | 1.08 |
| NCI-H2085 | 1.09 |

Same assay, conditions: first compound 0.6325 µM

| Cell Line | relative viability |
| --- | --- |
| NCI-H460 | 0.891 |
| HOP-62 | 1.02 |
| LXF-289 | 0.897 |
| BEN | 0.0633 |
| HARA | 0.894 |
| HCC-78 | 0.868 |
| NCI-H647 | 1.08 |
| LCLC-97TM1 | 0.633 |
| NCI-H2126 | 0.852 |
| A-427 | 1.03 |
| RERF-LC-KJ | 0.517 |
| NCI-H1915 | 0.743 |
| NCI-H441 | 0.576 |
| NCI-H1975 | 1.01 |
| NCI-H1395 | 0.917 |
| 201T | 1.32 |
| NCI-H2023 | 0.938 |
| HCC-827 | 1.03 |
| NCI-H322M | 1.14 |

| Cell Line | relative viability |
| --- | --- |
| NCI-H1437 | 1.09 |
| PC-14 | 0.994 |
| CAL-12T | 1.16 |
| NCI-H1734 | 0.735 |
| EPLC-272H | 0.775 |
| NCI-H3122 | 1.05 |
| NCI-H2009 | 1.06 |
| NCI-H520 | 1.08 |
| NCI-H1651 | 1.07 |
| NCI-H1993 | 0.747 |
| NCI-H2228 | 0.961 |
| HCC-15 | 0.659 |
| NCI-H1793 | 0.449 |
| EKVX | 0.944 |
| LC-2-ad | 0.386 |
| NCI-H1666 | 1.39 |
| NCI-H1944 | 1.02 |
| NCI-H2085 | 1.05 |

Same assay, conditions: first compound 2 µM

| Cell Line | relative viability |
| --- | --- |
| NCI-H460 | 1.23 |
| HOP-62 | 0.914 |
| LXF-289 | 0.958 |
| BEN | 0.0537 |
| HARA | 1.15 |
| HCC-78 | 0.948 |
| NCI-H647 | 1.14 |
| LCLC-97TM1 | 0.293 |
